Reference: patent US4996314A, “6-(disubstituted amino)carbapenem compounds” (Sanraku Incorporated, priority 1986, dated 1991)

Legend:
Assay in all cases: Antimicrobial activity (MIC), agar diluting method
Type in all cases: cell-based
[1] = tested on: Bacillus subtilis (ATCC 6633); conditions: ATCC6633, Mueller Hinton agar, 35° C., 18 hours
Protocol: (§1) (1) Antimicrobial activity test
(§2) The antimicrobial activity was measured by the agar diluting method in accordance with the Standardized Method of the Japanese Society of Chemotherapy. A twofold dilution of a test compound was prepared by using M/50 phosphate buffer (pH 7.0). One milliliter of this solution and 9 ml of a Mueller Hinton agar medium (made by Difco Laboratories were mixed in a Petri dish having a diameter of 9 cm to prepare plates. A test microorganism was cultured overnight in a stationary condition at 35° C. in a Mueller-Hinton broth (made by Difco) and diluted with physiological saline to provide a cell density of about 10 ^6 cells/ml. Five microliter of the microorganism suspension was inoculated on the agar plates using a microplanter (made by Sakuma Seisakusho). The plates were incubated at 35° C. for 18 hours. The lowest concentration of the test compound at which the growth of the microorganism was completed inhibited is defined as the minimum inhibitory concentration (MIC) of the test compound against the test organism.

[2] = tested on: Comamonas terrigena (B 996); conditions: Mueller Hinton agar, 35° C., 18 hours
Protocol: as §1, §2

[3] = tested on: Micrococcus luteus (ATCC 9341); conditions: ATCC9341, Mueller Hinton agar, 35° C., 18 hours
Protocol: as §1, §2

[4] = tested on: Staphylococcus aureus (FDA 209 p); conditions: FDA209, Mueller Hinton agar, 35° C., 18 hours
Protocol: as §1, §2

Row | MIC [1] [µg/mL] | MIC [2] [µg/mL] | MIC [3] [µg/mL] | MIC [4] [µg/mL] | Compound
1 | 6.25 | 0.39 | 3.13 | 0.39 | COC(=O)N(C)[C@H]1C(=O)N2C(C(=O)O)=C(SCCNC(C)=O)C[C@H]12 [[22], sodium (5R,6R)-6-(N-carbomethoxy-N-methyl)amino-3-acetamidoethylthio-1-azabicyclo[3.2.0]hept-2-ene-7-one-2-carboxylate]
2 | 1.56 | 1.56 | 1.56 | 0.2 | CC(=O)NCCSC1=C(C(=O)O)N2C(=O)[C@H](N(C)C(=O)OCc3ccccc3)[C@H]2C1 [[14], sodium (5R,6R)-3-(2-acetamidoethylthio)-6-(N-benzyloxycarbonyl)methylamino-7-oxo-1-azabicyclo[3.2.0]hept-2-ene-2-carboxylate]
3 | 1.56 | 3.13 | 0.78 | 0.2 | CC(=O)NCCSC1=C(C(=O)O)N2C(=O)[C@H](N(C)S(C)(=O)=O)[C@H]2C1 [[29], sodium (5R,6R)-3-(2-acetamidoethylthio)-6-(N-methanesulfonyl)methylamino-7-oxo-1-azabicyclo[3.2.0]hept-2-ene-2-carboxylate]
